Results published in patent US11793849B2, “Method of Chinese herbal medicine extract used for treating multiple diseases caused by drug resistant bacteria infection” (priority 2016, dated 2023).
Converted amounts (≈) assume the structure as drawn. Read-outs that look alike come from different tables or passages of the source.

Tests used:
MDRPA = assay: MIC determination, microdilution broth method; conditions: for MIC: Pseudomonas aeruginosa; for MIC50 / MIC90: single use, 20 MDRPAs;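 as to all read-outs here: broth microdilution per NCCLS recommendations, testing Pithecellobium clypearia water or ethanol extracts against multidrug-resistant Pseudomonas aeruginosa, with MIC50 and MIC90 derived statistically from individual MICs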
Method: (§1) Determination methods of a Minimal Inhibitory Concentration (MIC) and a Minimum Bactericidal Concentration (MBC) of a test product: the MIC and the MBC of the Pithecellobium clypearia Benth water or ethanol extract to the MDRAB are determined by a microdilution broth method. And it is operated by referring to the microdilution broth method recommended by National Committee for Clinical Laboratory Standards (NCCLS).
(§2) By determining the MIC and the MBC of the drug and making statistics of the data to obtain MIC50, MIC90, MBC50 and MBC90, the effect of the MDRA resistance of the drug is evaluated.
Test method: the MDRPA (serial No.: P1-P20) strains are tested and are evaluated with reference to the method in the first embodiment.

ESBL-producing ECO = assay: MIC determination, microdilution broth method; type: cell-based, Escherichia coli
Method: as §1, §2

[1] = section of the 10% ethanol extract
[2] = section of the 60% ethanol extract
[3] = section of the 95% ethanol extract
[4] = EA = 10% ethanol extract, 20 ESBL-producing ECO strains
[5] = EA = 60% ethanol extract, 20 ESBL-producing ECO strains
[6] = EA = 95% ethanol extract, ESBL-producing ECOs
[7] = EA = water extract, 20 ESBL-producing ECO strains
[8] = single use, 20 ESBL-producing ECOs, section of the 10% ethanol extract
[9] = single use, 20 ESBL-producing ECOs, section of the 60% ethanol extract
[10] = single use, 20 ESBL-producing ECOs, section of the 95% ethanol extract

NCC[C@H](O)C(=O)N[C@@H]1C[C@H](N)[C@@H](O[C@H]2O[C@H](CN)[C@@H](O)[C@H](O)[C@H]2O)[C@H](O)[C@H]1O[C@H]1O[C@H](CO)[C@@H](O)[C@H](N)[C@H]1O [AMK, Amikacin]
MIC (MDRPA; read-out: MIC (single use), strain P7, EA=P. clypearia water extract): 1 µg/mL (≈ 1.71 µM)
MIC (MDRPA; read-out: MIC (single use), strain P8, EA=P. clypearia 10% ethanol extract): 1 µg/mL (≈ 1.71 µM)
MIC (MDRPA; read-out: MIC (single use), strain P8, EA=P. clypearia water extract): 1 µg/mL (≈ 1.71 µM)
MIC (MDRPA; read-out: MIC (single use), strain P9, EA=P. clypearia 10% ethanol extract): 1 µg/mL (≈ 1.71 µM)
MIC (MDRPA; read-out: MIC (single use), strain P9, EA=P. clypearia water extract): 1 µg/mL (≈ 1.71 µM)
MIC (MDRPA; read-out: MIC (single use), strain P10, EA=P. clypearia 10% ethanol extract): 4 µg/mL (≈ 6.83 µM)
MIC (MDRPA; read-out: MIC (single use), strain P10, EA=P. clypearia water extract): 4 µg/mL (≈ 6.83 µM)
MIC (MDRPA; read-out: MIC (single use), strain P11, EA=P. clypearia 10% ethanol extract): 1 µg/mL (≈ 1.71 µM)
MIC (MDRPA; read-out: MIC (single use), strain P11, EA=P. clypearia water extract): 1 µg/mL (≈ 1.71 µM)
MIC (MDRPA; read-out: MIC (single use), strain P12, EA=P. clypearia 10% ethanol extract): 32 µg/mL (≈ 54.6 µM)
MIC (MDRPA; read-out: MIC (single use), strain P12, EA=P. clypearia water extract): 32 µg/mL (≈ 54.6 µM)
MIC (MDRPA; read-out: MIC (single use), strain P13, EA=P. clypearia 10% ethanol extract): 2 µg/mL (≈ 3.42 µM)
MIC (MDRPA; read-out: MIC (single use), strain P13, EA=P. clypearia water extract): 2 µg/mL (≈ 3.42 µM)
MIC (MDRPA; read-out: MIC (single use), strain P14, EA=P. clypearia 10% ethanol extract): 2 µg/mL (≈ 3.42 µM)
MIC (MDRPA; read-out: MIC (single use), strain P14, EA=P. clypearia water extract): 2 µg/mL (≈ 3.42 µM)
MIC (MDRPA; read-out: MIC (single use), strain P15, EA=P. clypearia 10% ethanol extract): 2 µg/mL (≈ 3.42 µM)
MIC (MDRPA; read-out: MIC (single use), strain P15, EA=P. clypearia water extract): 2 µg/mL (≈ 3.42 µM)
MIC (MDRPA; read-out: MIC (single use), strain P16, EA=P. clypearia 10% ethanol extract): 256 µg/mL (≈ 437 µM)
MIC (MDRPA; read-out: MIC (single use), strain P16, EA=P. clypearia water extract): 256 µg/mL (≈ 437 µM)
MIC (MDRPA; read-out: MIC (single use), strain P17, EA=P. clypearia 10% ethanol extract): 1 µg/mL (≈ 1.71 µM)
MIC (MDRPA; read-out: MIC (single use), strain P17, EA=P. clypearia water extract): 1 µg/mL (≈ 1.71 µM)
MIC (MDRPA; read-out: MIC (single use), strain P18, EA=P. clypearia 10% ethanol extract): 16 µg/mL (≈ 27.3 µM)
MIC (MDRPA; read-out: MIC (single use), strain P18, EA=P. clypearia water extract): 16 µg/mL (≈ 27.3 µM)
MIC (MDRPA; read-out: MIC (single use), strain P19, EA=P. clypearia 10% ethanol extract): 1 µg/mL (≈ 1.71 µM)
MIC (MDRPA; read-out: MIC (single use), strain P19, EA=P. clypearia water extract): 1 µg/mL (≈ 1.71 µM)
MIC (MDRPA; read-out: MIC (single use), strain P20, EA=P. clypearia 10% ethanol extract): 2 µg/mL (≈ 3.42 µM)
MIC (MDRPA; read-out: MIC (single use), strain P20, EA=P. clypearia water extract): 2 µg/mL (≈ 3.42 µM)
MIC50 (MDRPA; [1]): 1 µg/mL (≈ 1.71 µM)
MIC90 (MDRPA; [1]): 32 µg/mL (≈ 54.6 µM)
MIC50 (MDRPA; [2]): 1 µg/mL (≈ 1.71 µM)
MIC90 (MDRPA; [2]): 32 µg/mL (≈ 54.6 µM)
MIC50 (MDRPA; [3]): 1 µg/mL (≈ 1.71 µM)
MIC90 (MDRPA; [3]): 32 µg/mL (≈ 54.6 µM)
MIC50 (ESBL-producing ECO; [4]): 16 µg/mL (≈ 27.3 µM)
MIC90 (ESBL-producing ECO; [4]): 64 µg/mL (≈ 109 µM)
MIC Range (ESBL-producing ECO; [4]): 4 to 512 µg/mL
MIC50 (ESBL-producing ECO; [5]): 16 µg/mL (≈ 27.3 µM)
MIC90 (ESBL-producing ECO; [5]): 64 µg/mL (≈ 109 µM)
MIC Range (ESBL-producing ECO; [5]): 4 to 512 µg/mL
MIC50 (ESBL-producing ECO; [6]): 16 µg/mL (≈ 27.3 µM)
MIC90 (ESBL-producing ECO; [6]): 64 µg/mL (≈ 109 µM)
MIC Range (ESBL-producing ECO; [6]): 4 to 512 µg/mL
MIC50 (ESBL-producing ECO; [7]): 16 µg/mL (≈ 27.3 µM)
MIC90 (ESBL-producing ECO; [7]): 64 µg/mL (≈ 109 µM)
MIC Range (ESBL-producing ECO; [7]): 4 to 512 µg/mL
MIC (ESBL-producing ECO; Escherichia coli): 128 µg/mL (≈ 219 µM)
MIC50 (ESBL-producing ECO; Escherichia coli, single use, 20 ESBL-producing ECOs, section of the water extract, read-out: MIC50): 16 µg/mL (≈ 27.3 µM)
MIC90 (ESBL-producing ECO; Escherichia coli, single use, 20 ESBL-producing ECOs, section of the water extract, read-out: MIC90): 64 µg/mL (≈ 109 µM)
MIC50 (ESBL-producing ECO; [8]): 16 µg/mL (≈ 27.3 µM)
MIC90 (ESBL-producing ECO; [8]): 64 µg/mL (≈ 109 µM)
MIC50 (ESBL-producing ECO; [9]): 16 µg/mL (≈ 27.3 µM)
MIC90 (ESBL-producing ECO; [9]): 64 µg/mL (≈ 109 µM)
MIC50 (ESBL-producing ECO; [10]): 16 µg/mL (≈ 27.3 µM)
MIC90 (ESBL-producing ECO; [10]): 64 µg/mL (≈ 109 µM)
